In patent US5877210A, “Phosphotyrosine phosphatase inhibitors or phosphotyrosine kinase activators for controlling cellular proliferation” (priority 1995, dated 1999):
Where “and” joins values, the source holds several entries; their conditions need not be identical. Identical values can stand only once. Entries after “also recorded” stand apart in the source; their conditions may differ.

Tests used:
[1] = system: normal peripheral B cells; assay: Normal peripheral B cell [3H]-thymidine incorporation; assay type: cell-based, human
Method: In the experiment reported in Table 4, monoclonal antibodies to CD20 and CD40 were used to stimulate proliferation. Peripheral B cells were isolated from two healthy human volunteers. The cells were stimulated as listed in Table 4 and the effects of various doses of BMLOV on proliferation, as measured by [^3 H]-thymidine incorporation, were determined. BMLOV was able to inhibit proliferation induced by CD20, CD40, IL-4 and PMA in the various combinations tested. The cells from donor 2 were more sensitive, indicating some variation among individuals in their sensitivity to the drug.
Stimulation of CD20 was via monoclonal antibody 1F5 and stimulation of CD40 was via monoclonal antibody G28-5.
(§1) For assays of cellular proliferation, cells were grown five days in the presence of the indicated concentrations of BMLOV, pulsed 6 hr with [^3 H]-thymidine (New England Nuclear, Boston, Mass.), and counted in a liquid scintillation counter. Human peripheral blood lymphocytes (PBL) from normal volunteers were isolated from lymphocyte separation medium (Litton Bionetics, Kensington, Md.) by density gradient centrifugation. Monocytes were depleted from PBL by two rounds of plastic absorption for 30 minutes at 37° C. B cells were enriched for by negative selection using complement plus monoclonal antibodies to CD2, CD3, CD4, and CD8 for complement depletion. Clonogenic assays of colony formation in methylcellulose medium were performed as previously described (F. M. Uckun et al. (1992), supra).

Lyn = assay: Src-family kinase activity from treated Ramos cells; assay type: cell-based, human; conditions: Ramos cells treated with BMLOV for 15 hours
Method: (§2) Treatment of Ramos cells with BMLOV for 15 hours inhibited the activity of the Src kinases Lyn and Fyn from the cells by approximately 50%.

Fyn = assay: as above; assay type: cell-based, human; conditions: Ramos cells treated with BMLOV for 15 hours
Method: as §2

normal tonsillar B cells = assay: Normal tonsillar B cell proliferation; assay type: cell-based
From the text: BMLOV can inhibit normal tonsillar B cell proliferation driven by stimulation of CD40 via either anti-CD40 antibody or gp39 ligand plus either anti-CD20 antibody or phorbol 12-myristate 13-acetate (PMA). […] Variations between the individuals from which the tonsils were derived could account for the differences between these experiments.

Ramos = assay: Clonogenic assay in methylcellulose; assay type: cell-based, human; conditions: Ramos; for colonies formed: seven days
Method: (§3) The selective cytotoxicity of BMLOV was examined in clonogenic assays. Cells were grown in methylcellulose media and the number of colonies formed after seven days of treatment with various doses of the drug were determined. The clonogenic assays were performed with six replicates for each treatment as described [F. M. Uckun et al., J. Exp. Med. 163:347-368 (1986); F. M. Uckun & J. A. Ledbetter, Proc. Natl. Acad. Sci. USA 85:8603-8607 (1988)). The data is given plus/minus the standard error of the mean.
as §1

THP-1 = assay: Clonogenic assay in methylcellulose; assay type: cell-based, human; conditions: for colonies formed: seven days
Method: as §3, §1

HL-60 = assay: Clonogenic assay in methylcellulose; assay type: cell-based, human; conditions: for colonies formed: seven days
Method: as §3, §1

Raji = assay: Clonogenic assay in methylcellulose; assay type: cell-based, human; conditions: for colonies formed: seven days
Method: as §3, §1

pp60^c-src = assay: pp60c-src kinase activity in colon carcinoma cell lines; assay type: cell-based; conditions: two colon carcinoma cell lines expressing Src; dose-dependent
From the text: Many colon carcinomas are known to express the Src oncogene product at high levels.

T cell line CEM = assay: Clonogenic assay in methylcellulose; assay type: cell-based, human; conditions: dose as high as 100 μM BMLOV
Method: as §3

Ramos B cells = assay: Viability by propidium iodide staining and flow cytometry; assay type: cell-based, human; conditions: 25 μM BMLOV, 4 days (FIG. 15B) or 5 d (FIG. 30)
From the text: The extent to which the T cells were being killed by BMLOV treatment relative to the Ramos B cells was therefore examined. […] The percentage of cells in each quadrant is indicated. The lower right quadrant contains the viable cells.

[2] = system: calf intestinal alkaline phosphatase; assay: Alkaline phosphatase inhibition; assay type: biochemical
i.p. B16 murine melanoma = assay type: in vivo
Method: The cumulative dose MTD of 54 mg/kg was similar to the 60 mg/kg cumulative MTD observed in the last M109 experiment.

[3] = system: i.p. implanted P388 murine leukemia; assay: In vivo antitumor test, P388

Compound: Cc1occc(=O)c1[O-].Cc1occc(=O)c1[O-].[O]=[V+2] [BMLOV, Bis(maltolato)oxovanadium (IV)]
- [3H]cpm incorporation ([1]; Donor #1, CD20 + CD40, 1 μM BMLOV): 3619 cpm
- [3H]cpm incorporation ([1]; Donor #1, CD20 + CD40, 5 μM BMLOV): 3644 cpm
- [3H]cpm incorporation ([1]; Donor #1, CD20 + CD40, 10 μM BMLOV): 3422 cpm
- [3H]cpm incorporation ([1]; Donor #1, CD20 + CD40, 25 μM BMLOV): 2432 cpm
- [3H]cpm incorporation ([1]; Donor #1, CD40 + IL4, 1 μM BMLOV): 31966 cpm
- [3H]cpm incorporation ([1]; Donor #1, CD40 + IL4, 5 μM BMLOV): 33845 cpm
- [3H]cpm incorporation ([1]; Donor #1, CD40 + IL4, 10 μM BMLOV): 31637 cpm
- [3H]cpm incorporation ([1]; Donor #1, CD40 + IL4, 25 μM BMLOV): 24933 cpm
- [3H]cpm incorporation ([1]; Donor #1, PMA + CD40, 1 μM BMLOV): 62643 cpm
- [3H]cpm incorporation ([1]; Donor #1, PMA + CD40, 5 μM BMLOV): 58418 cpm
- [3H]cpm incorporation ([1]; Donor #1, PMA + CD40, 10 μM BMLOV): 45330 cpm
- [3H]cpm incorporation ([1]; Donor #1, PMA + CD40, 25 μM BMLOV): 25536 cpm
- [3H]cpm incorporation ([1]; Donor #1, PMA + IL4, 1 μM BMLOV): 61415 cpm
- [3H]cpm incorporation ([1]; Donor #1, PMA + IL4, 5 μM BMLOV): 48724 cpm
- [3H]cpm incorporation ([1]; Donor #1, PMA + IL4, 10 μM BMLOV): 45278 cpm
- [3H]cpm incorporation ([1]; Donor #1, PMA + IL4, 25 μM BMLOV): 14277 cpm
- [3H]cpm incorporation ([1]; Donor #2, CD20 + CD40, 1 μM BMLOV): 4593 cpm
- [3H]cpm incorporation ([1]; Donor #2, CD20 + CD40, 5 μM BMLOV): 5681 cpm
- [3H]cpm incorporation ([1]; Donor #2, CD20 + CD40, 10 μM BMLOV): 5269 cpm
- [3H]cpm incorporation ([1]; Donor #2, CD20 + CD40, 25 μM BMLOV): 856 cpm
- [3H]cpm incorporation ([1]; Donor #2, CD40 + IL4, 1 μM BMLOV): 16597 cpm
- [3H]cpm incorporation ([1]; Donor #2, CD40 + IL4, 5 μM BMLOV): 18824 cpm
- [3H]cpm incorporation ([1]; Donor #2, CD40 + IL4, 10 μM BMLOV): 12662 cpm
- [3H]cpm incorporation ([1]; Donor #2, CD40 + IL4, 25 μM BMLOV): 6013 cpm
- [3H]cpm incorporation ([1]; Donor #2, PMA + CD40, 1 μM BMLOV): 49102 cpm
- [3H]cpm incorporation ([1]; Donor #2, PMA + CD40, 5 μM BMLOV): 47624 cpm
- [3H]cpm incorporation ([1]; Donor #2, PMA + CD40, 10 μM BMLOV): 29024 cpm
- [3H]cpm incorporation ([1]; Donor #2, PMA + CD40, 25 μM BMLOV): 15671 cpm
- [3H]cpm incorporation ([1]; Donor #2, PMA + IL4, 1 μM BMLOV): 53642 cpm
- [3H]cpm incorporation ([1]; Donor #2, PMA + IL4, 5 μM BMLOV): 41892 cpm
- [3H]cpm incorporation ([1]; Donor #2, PMA + IL4, 10 μM BMLOV): 20313 cpm
- [3H]cpm incorporation ([1]; Donor #2, PMA + IL4, 25 μM BMLOV): 2730 cpm
- inhibition of kinase activity (Lyn): approximately 50%
- inhibition of kinase activity (Fyn): approximately 50%
- effect on proliferation (normal tonsillar B cells; first experiment (FIG. 3), 0.1 to 10 μM BMLOV): little effect on proliferation
- effect on proliferation (normal tonsillar B cells; second experiment (FIG. 4), 5 μM BMLOV): substantial inhibition of proliferation
- effect on proliferation (normal tonsillar B cells; second experiment (FIG. 4), 50 μM BMLOV): completely blocked proliferation
- percentage of inhibition of clonogenic growth (Ramos; 1 μM BMLOV): 95.6%
- colonies formed (Ramos; 1 μM BMLOV): 179 ± 33 colonies per 10^4 cells
- percentage of inhibition of clonogenic growth (Ramos; 5 μM BMLOV): 99.8%
- colonies formed (Ramos; 5 μM BMLOV): 7 ± 2 colonies per 10^4 cells
- percentage of inhibition of clonogenic growth (Ramos; 10 μM BMLOV): greater than 99.9%
- colonies formed (Ramos; 10 μM BMLOV): 0 colonies per 10^4 cells
- percentage of inhibition of clonogenic growth (THP-1; 1 μM BMLOV): 75.0%
- colonies formed (THP-1; 1 μM BMLOV): 1613 ± 235 colonies per 10^4 cells
- percentage of inhibition of clonogenic growth (THP-1; 5 μM BMLOV): 98.0%
- colonies formed (THP-1; 5 μM BMLOV): 127 ± 35 colonies per 10^4 cells
- percentage of inhibition of clonogenic growth (THP-1; 10 μM BMLOV): 98%
- colonies formed (THP-1; 10 μM BMLOV): 127 ± 35 colonies per 10^4 cells
- percentage of inhibition of clonogenic growth (HL-60; 1 μM BMLOV): 99.4%
- colonies formed (HL-60; 1 μM BMLOV): 31 ± 8 colonies per 10^4 cells
- percentage of inhibition of clonogenic growth (HL-60; 5 μM BMLOV): 99.4%
- colonies formed (HL-60; 5 μM BMLOV): 31 ± 8 colonies per 10^4 cells
- percentage of inhibition of clonogenic growth (HL-60; 10 μM BMLOV): 99.7%
- colonies formed (HL-60; 10 μM BMLOV): 15 ± 4 colonies per 10^4 cells
- percentage of inhibition of clonogenic growth (Raji; 1 μM BMLOV): 60.3%
- colonies formed (Raji; 1 μM BMLOV): 1291 ± 283 colonies per 10^4 cells
- percentage of inhibition of clonogenic growth (Raji; 5 μM BMLOV): 99.9%
- colonies formed (Raji; 5 μM BMLOV): 4 ± 0.6 colonies per 10^4 cells
- colonies formed (Raji; 10 μM BMLOV): 3 ± 0.8 colonies per 10^4 cells
- pp60c-src activity (pp60^c-src): strongly inhibited
- inhibition of clonogenic growth (T cell line CEM): inhibited only moderately
- killing by BMLOV, in words (Ramos B cells): substantially more sensitive to killing; also recorded: completely killed
- inhibition of calf intestinal alkaline phosphatase ([2]; 500 μM BMLOV): less than 10%
- IC50 ([2]; Table 1, p-nitrophenyl phosphate substrate): > 500 µM
- IC50 ([2]; Table 8): > 500 µM

Compound: [Na+].[O]=[V-]12([O][O]1)[O][O]2.c1cnc2c(c1)ccc1cccnc12 [pV(phen), sodium (1,10-phenanthroline) oxodiperoxovanadium (V)]
- Max. % T/C (i.p. B16 murine melanoma; Expt. 799, 6 mg/kg/inj (MTD reached), qd 1→9, ip): 152%
- maximum tolerated dose (MTD) (i.p. B16 murine melanoma; mouse, in vivo, ip): 6 mg/kg per injection
- Max. % T/C ([3]; Expt. 8457, 8 mg/kg/inj (MTD reached), d.1, ip, 8 mg/kg): < 125% and 105%
- dose considered to be a MTD ([3]; daily i.p. injections days 1 to 5, Expt. 8459): 12 mg/kg per injection
- excessively toxic, i.e. lethal, dose ([3]; single i.p. doses, Expt. 8457): greater than or equal to 32 mg/kg
